This data set relates to weiblichen und männlichen Mäusen. Description: Acute toxicity in mice after a single oral dose. It is filed as in vivo. The conditions noted are these: observation at least 7 days; for orientierende Toxizität: single dose p.o., suspension in 1% methylcellulose. The source says: Bei weiblichen und männlichen Mäusen eigener Zucht mit dem Gewicht von 20-26 g wurde die toxische Wirkung der Substanzen nach oraler Gabe (Suspension in 1%iger Methylcellulose) einer einmaligen Dosis bei einer Nachbeobachtungszeit von mindestens 7 Tagen geprüft. Die nachfolgende Tabelle enthält die gefundenen Werte: […]

Setting [1] is: single dose of 2 000 mg/kg p.o.
Setting [2] is: single dose of 1 000 mg/kg p.o.

Some results are limits rather than exact numbers.

With `CN(C)c1ccc(Cl)cc1C(=O)NCCc1ccc(C(=O)O)cc1` [A, 4-[2-(5-Chlor-2-dimethylamino-benzoylamino)-äthyl]benzoe-säure], the “orientierende Toxizität” value is > 2 000 mg/kg. In addition, under setting [1], the Tieren gestorben worked out at 0 von 6.

Regarding `CN(C)c1ccc(Br)cc1C(=O)NCCc1ccc(C(=O)O)cc1` [B, 4-[2-(5-Brom-2-dimethylamino-benzoylamino)-äthyl]benzoesäure], the “orientierende Toxizität” value is > 1 000 mg/kg. This molecule registered a Tieren gestorben under setting [2] of 0 von 5.

Regarding `O=C(O)c1ccc(CCNC(=O)c2cc(Cl)ccc2N2CCCCC2)cc1` [D, 4-[2-(5-Chlor-2-piperidino-benzoylamino)-äthy]benzoesäure], the “orientierende Toxizität” value was > 2 000 mg/kg. The Tieren gestorben under setting [1] amounted to 0 von 6.

Take `COC(=O)c1ccc(CCNC(=O)c2cc(Cl)ccc2N2CC(C)CC(C)C2)cc1` (centres unmarked) [H, 4-[2-(5-Chlor-2-(3,5-dimethyl-piperidino)-benzoylamino)-äthy]benzoesäure-methylester]: the “orientierende Toxizität” value is > 1 000 mg/kg. Under setting [2], this molecule registered a Tieren gestorben of 0 von 6.

Turning to `O=C(O)c1cc(Cl)ccc1N1CCC2(CC1)OCCO2` [KK, 5-Chlor-2-(1,4-dioxa-8-aza-spiro[4,5]decan-8-yl)-benzoe-säure], the “orientierende Toxizität” value was > 2 000 mg/kg. Besides, the Tieren gestorben under setting [1] was found to be 0 von 10.

For the molecule `O=C(O)c1ccc(CCNC(=O)c2cc(Cl)ccc2N2CCCCCC2)cc1` [O, 4-[2-(5-Chlor-2-hexamethylenimino-benzoylamino)-äthyl]-benzoesäure], the “orientierende Toxizität” value is > 1 000 mg/kg. For the same molecule, the Tieren gestorben under setting [2] is 0 von 10.

Regarding `CC1CN(c2ccc(Cl)cc2C(=O)NCCc2ccc(C(=O)O)cc2)CC(C)O1` (centres unmarked) [T, 4-[-(5-Chlor-2-(2,6-dimethyl-morpholino)-benzoylamino)-äthyl]benzoesäure], the “orientierende Toxizität” value is > 1 000 mg/kg. The same molecule displayed a Tieren gestorben under setting [2] of 0 von 10.

On to `CCOC(=O)c1ccc(CCNC(=O)c2cc(Br)ccc2N2CCCCCCC2)cc1` [V, 4-[2-(5-Brom-2-heptamethylenimino-benzoylamino)-äthyl]benzoesäure-äthylester], for which the “orientierende Toxizität” value is > 1 000 mg/kg. The same molecule yielded a Tieren gestorben under setting [2] of 0 von 10.

Consider `O=C(O)c1ccc(CCNC(=O)c2cc(Br)ccc2N2CCCCCCC2)cc1` [W, 4-[2-(5-Brom-2-heptamethylenimino-benzoylamino)-äthyl]-benzoesäure], for which the “orientierende Toxizität” value is given as > 1 000 mg/kg. Under setting [2], the Tieren gestorben was 0 von 6.

As to `O=C(O)c1ccc(CCNC(=O)c2cc(Cl)ccc2N2CCCCCCCC2)cc1` [X, 4-[2-(5-Chlor-2-octamethylenimino-benzoylamino)-äthyl]-benzoesäure], the “orientierende Toxizität” value is recorded as > 1 000 mg/kg. Besides, the Tieren gestorben under setting [2] was 0 von 6.

These data come from patent EP0023569A1, “Derivatives of carboxylic acids, their preparation and medicaments containing them” (Dr. Karl Thomae GmbH, priority 1979, dated 1981).
